Laboratory results published in US11318110B2, “Pharmaceutical composition for reducing local fat and uses thereof” (Caliway Biopharmaceuticals Co., Ltd., priority 2015, dated 2022).

Assays:
[1] = test system: rat somatic cells except adipocytes; test: Cytotoxicity test by MTT assay (Experiment 10-1); assay type: cell-based; settings: 50 ppm
Source text: Determine if 50 ppm of caffeine and L-carnitine have toxicity to cells other than adipocytes by MTT assay. Only if the drug is deemed non-toxic will lipolysis test be proceeded.

[2] = test system: mature adipocytes (differentiated 3T3-L1 cells); test: Apoptosis of mature adipocytes, annexin V/PI flow cytometry (Experiment 10-2); assay type: cell-based; settings: 50 ppm total drug (complexes: 20 ppm curcumin + 30 ppm hydrophilic drug), 24 hours; sterile water control 0.8±0.4%
Source text: The curcumin cell culture medium: same as the preparation of the curcumin cell culture medium in Experiment 8-2. […] Caffeine (purchased from Sigma-Aldrich) was mixed with an appropriate amount of sterile water to obtain a caffeine solution. The caffeine solution was mixed with a cell culture medium to prepare the caffeine cell culture medium containing 50 ppm of caffeine. Wherein, the volume ratio of the caffeine cell culture medium and the cell culture medium was 1:1000. The L-carnitine cell culture medium: L-carnitine (purchased from Sigma-Aldrich) was mixed with an appropriate amount of sterile water to obtain a L-carnitine solution. The L-carnitine solution was mixed with a cell culture medium to prepare the caffeine cell culture medium containing 50 ppm of L-carnitine. Wherein, the volume ratio of the L-carnitine cell culture medium and the cell culture medium was 1:1000. The curcumin-caffeine complex cell culture medium: Curcumin and caffeine were mixed with an appropriate amount of sterile water to prepare a curcumin-caffeine complex solution. […] Wherein, the concentration of curcumin was 20 ppm, the concentration of caffeine was 30 ppm, and the volume ratio of the curcumin-caffeine complex solution and the cell culture medium was 1:1000. The curcumin-L-carnitine complex cell culture medium: Curcumin and L-carnitine were mixed with an appropriate amount of sterile water to prepare a curcumin-L-carnitine complex solution. […] Wherein, the concentration of curcumin was 20 ppm, the concentration of L-carnitine was 30 ppm, and the volume ratio of the curcumin-L-carnitine complex solution and the cell culture medium was 1:1000. […] Annexin V protein (purchased from eBioscience) and propidium iodide (PI; purchased from eBioscience) were mixed with the cells in each group for a period of time, and then the percentage of cells labeled by annexin V protein and PI in each group was analyzed by flow cytometry to assess the percentage of mature adipocytes undergoing apoptosis.

[3] = test system: lower inguinal subcutaneous fat of rats; test: Administered dosage of curcumin-resveratrol complex composition, localized subcutaneous fat of rats (Experiment 7-5); assay type: in vivo; settings: 0.04 μg/kg injected on days 1-4; 14-day experiment; high-fat diet control 100±15.2%
Protocol: LIPO-202 is a local lipolysis injection formulation currently undergoing clinical trials, and its main ingredient is salmeterol xinafonate. • (i) 1 mg of salmeterol xinafonate (purchased from Sigma-Aldrich) was mixed with an appropriate amount of methanol to a total volume of 1 mL to obtain a 1 mg/mL stock solution. • (ii) The stock solution was 10-fold serial diluted with sterile water to prepare a salmeterol xinafonate solution of a final concentration of 0.01 μg/mL, which is the LIPO-202 solution used in this experiment. same as the preparation of the curcumin-resveratrol complex solution comprising ELP described in Experiment 7-2. […] The rats were fed in the same manner described in Experiment 2. […] The LIPO-202 solution was injected to the lower inguinal subcutaneous fat layer of rats in the LIPO-202 group. […] The 1 mg/mL complex formula group: […] The 5 mg/mL complex formula group: The curcumin-resveratrol complex pharmaceutical composition was injected to the lower inguinal subcutaneous fat layer of rats in the 5 mg/mL complex formula group. […] The 10 mg/mL complex formula group: […] The 20 mg/mL complex formula group: […] Rats were injected once a day on day 1, 2, 3, and 4 of the experiment. The rats were fed with high-fat diet for the entire duration of the experiment. The experiment lasted for 14 days, and the rats were euthanized on day 15 by CO2.

[4] = test system: mature adipocytes (differentiated 3T3-L1 cells); test: Apoptosis of mature adipocytes, annexin V/PI flow cytometry (Experiment 8-2); assay type: cell-based; settings: 50 ppm total drug (complexes: 20 ppm curcumin + 30 ppm second drug), 24 hours; DMSO control 0.8±0.2%
Source text: The curcumin cell culture medium: curcumin was mixed with an appropriate amount of 0.5% DMSO solution to obtain a curcumin solution. The curcumin solution was mixed with a cell culture medium (product name: Dulbecco's Modified Eagle Medium, purchased from Gibco) to prepare the curcumin cell culture medium containing 50 ppm of curcumin, wherein, the volume ratio between the curcumin solution and the cell culture medium was 1:1000. The puerarin cell culture medium: puerarin (purchased from Sigma-Aldrich) was mixed with an appropriate amount of 0.5% DMSO solution to obtain a puerarin solution. The puerarin solution was mixed with a cell culture medium to prepare the puerarin cell culture medium containing 50 ppm of puerarin, wherein, the volume ratio between the puerarin solution and the cell culture medium is 1:1000. The quercetin cell culture medium: quercetin (purchased from Sigma-Aldrich) was mixed with an appropriate amount of 0.5% DMSO solution to obtain a quercetin solution. The quercetin solution was mixed with a cell culture medium to prepare the quercetin cell culture medium containing 50 ppm of quercetin, wherein, the volume ratio between the quercetin solution and the cell culture medium was 1:1000. The synephrine cell culture medium: synephrine (purchased from Sigma-Aldrich) was mixed with an appropriate amount of 0.5% DMSO solution to obtain a synephrine solution. The synephrine solution was mixed with a cell culture medium to prepare the synephrine cell culture medium containing 50 ppm of synephrine, wherein, the volume ratio between the synephrine solution and the cell culture medium was 1:1000. The curcumin-puerarin complex cell culture medium: curcumin and puerarin were mixed with an appropriate amount of 0.5% DMSO solution to obtain a curcumin-puerarin complex solution. […] The curcumin-quercetin complex cell culture medium: curcumin and quercetin were mixed with an appropriate amount of 0.5% DMSO solution to obtain a curcumin-quercetin complex solution. […] Experimental procedure to determine the lipolysis efficacy on mature adipocytes The adipocyte precursors 3T3-L1 cells (purchased from the Food Industry Research and Development Institute, Taiwan; abbreviated as BCRC) were seeded in 12-well plates, such that each well contained 1×10^5 cells. […] Annexin V protein (purchased from eBioscience) and propidium iodide (PI; purchased from eBioscience) were mixed with the cells in each group for a period of time, and then the percentage of cells labeled by annexin V protein and PI in each group was analyzed by flow cytometry to assess the percentage of mature adipocytes undergoing apoptosis. […] The data were presented as mean±SD and analyzed by one-way ANOVA. […]

[5] = test system: lower inguinal subcutaneous fat of rats; test: Dosing frequency of curcumin-resveratrol complex composition, localized subcutaneous fat of rats (Experiment 7-4); assay type: in vivo; settings: 10.3 mg/kg on days 1, 3, 5 (total 30.9 mg/kg); 20-day experiment; control 100.0±22.6%
Protocol: (§1) Preparation of the sodium deoxycholate solution: An appropriate amount of sodium deoxycholate was mixed with sterile water for injection to make the concentration of sodium deoxycholate 2.575 mg/mL. The solution was mixed well to obtain the sodium deoxycholate solution. Wherein, sodium deoxycholate (purchased from Sigma-Aldrich, cat #D6750) is the main ingredient of the local lipolysis injection formulation ATX-101 (brand name: KYBELLA®) in the market.
(§2) Preparation of the curcumin-resveratrol complex pharmaceutical composition: same as the preparation of the curcumin-resveratrol complex solution comprising ELP described in Experiment 7-2. Wherein, the total concentration of curcumin and resveratrol was 5 mg/mL, and the ratio of curcumin to resveratrol was 4:1.
(§3) The rats were randomly assigned into 4 groups, which were a high-fat diet control group, a sodium deoxycholate group, a high-dosing frequency curcumin-resveratrol group (abbreviated as high-dosing frequency group in this experiment), and a low-dosing frequency curcumin-resveratrol group (abbreviated as low-dosing frequency group in this experiment). The rats were fed in the same manner described in Experiment 2.
(§4) The sodium deoxycholate group: The sodium deoxycholate solution was injected to the lower inguinal subcutaneous fat layer of rats in the sodium deoxycholate group. […]

[6] = Dosing frequency of curcumin-resveratrol complex composition, body weight gain of rats (Experiment 7-4); assay type: in vivo; settings: 10.3 mg/kg on days 1, 3, 5 (total 30.9 mg/kg); control 100.0±11.6%
Protocol: as §1, §2, §3, §4

[7] = test system: lower inguinal subcutaneous fat of rats; test: Dosing frequency of curcumin-green tea extract complex composition, localized subcutaneous fat of rats (Experiment 9-2); assay type: in vivo; settings: 10.3 mg/kg on days 1, 3, 5 (total 30.9 mg/kg); 20-day experiment; control 100.0±22.6%
Protocol: (§5) Preparation of the sodium deoxycholate solution: same as the preparation of the sodium deoxycholate solution in Experiment 7-4.
(§6) Preparation of the curcumin-green tea extract complex pharmaceutical composition: 0.8 g of curcumin was mixed with 150˜200 mL of dichloromethane and stirred at 150˜500 rpm to completely dissolve curcumin. 40 g of KOLLIPHOR® ELP (also known as CREMOPHOR® ELP, polyoxyl 35 castor oil, abbreviated as ELP) was added and stirred at 100˜300 rpm to volatilize dichloromethane. Once dichloromethane volatilized completely, normal saline for injection was slowly added to a total volume of 200 mL. Wherein, the normal saline for injection comprised 0.2 g of green tea extract. The solution was mixed well to obtain the curcumin-green tea extract complex solution comprising ELP. Said curcumin-green tea extract complex solution comprising ELP comprised drug-containing micelles, the total concentration of curcumin and green tea was 5 mg/mL, and the weight ratio of curcumin and green tea extract was 4:1
(§7) The rats were randomly assigned into 4 groups, which were a high-fat diet control group, a sodium deoxycholate group, a high-dosing frequency curcumin-green tea extract group (abbreviated as high-dosing frequency group in this experiment), and a low-dosing frequency curcumin-green tea extract group (abbreviated as low-dosing frequency group). […]

[8] = Dosing frequency of curcumin-green tea extract complex composition, body weight gain of rats (Experiment 9-2); assay type: in vivo; settings: 10.3 mg/kg on days 1, 3, 5 (total 30.9 mg/kg); control 100.0±11.6%
Protocol: as §5, §6, §7

Molecule	percentage of apoptotic cells [2] [%]	percentage of apoptotic cells [4] [%]	also measured
C[N+](C)(C)C[C@H](O)CC(=O)[O-] [L-carnitine]	1.7±0.5	–	cytotoxicity (MTT assay) [1]: not cytotoxic
OCc1cc(C(O)CNCCCCCCOCCCCc2ccccc2)ccc1O (centres unmarked) [LIPO-202, salmeterol xinafonate]	–	–	relative weight of the lower inguinal subcutaneous fat [3]: 97.8±12.8%
Cn1c(=O)c2c(ncn2C)n(C)c1=O [caffeine]	2.0±1.7	–	cytotoxicity (MTT assay) [1]: not cytotoxic
COc1cc(/C=C/C(=O)CC(=O)/C=C/c2ccc(O)c(OC)c2)ccc1O [curcumin]	78.4±5.4	78.4±5.4	–
O=c1c(-c2ccc(O)cc2)coc2c([C@@H]3O[C@H](CO)[C@@H](O)[C@H](O)[C@H]3O)c(O)ccc12 [puerarin]	–	2.0±1.6	–
O=c1c(O)c(-c2ccc(O)c(O)c2)oc2cc(O)cc(O)c12 [quercetin]	–	1.8±0.6	–
CNCC(O)c1ccc(O)cc1 (centres unmarked) [synephrine]	–	0.9±0.2	–
sodium deoxycholate	–	–	relative weight of the lower inguinal subcutaneous fat [5]: 88.8±16.7%; relative weight gain [6]: 100.2±12.6%; relative weight of the lower inguinal subcutaneous fat [7]: 88.8±16.7%; relative weight gain [8]: 100.2±12.6%
